In ChEMBL document CHEMBL4342418, “1,2,3-Triazole-containing hybrids as potential anticancer agents: Current developments, action mechanisms and structure-activity relationships” (Eur J Med Chem, 2019):

Assays:
Type in all cases: functional, cell-based
[1] = test system: HL-60; experiment: Antiproliferative activity against human HL60 cells by MTT assay
[2] = test system: MCF7; experiment: cells; details: Homo sapiens
Description: Antiproliferative activity against human MCF7 cells by MTT assay

[3] = test system: Lu1; experiment: Antiproliferative activity against human Lu1 cells by MTT assay
[4] = test system: P388; experiment: Antiproliferative activity against mouse P388 cells by MTT assay
[5] = test system: A-431; experiment: Antiproliferative activity against human A431 cells assessed as reduction in cell viability after 24 hrs by MTT assay; details: A-431, 24 h
[6] = test system: K562; experiment: Antiproliferative activity against human K562 cells assessed as reduction in cell viability after 24 hrs by MTT assay; details: K562, 24 h
[7] = test system: COLO 205; experiment: Antiproliferative activity against human COLO205 cells assessed as reduction in cell viability after 24 hrs by MTT assay; details: COLO 205, 24 h
[8] = test system: A549; experiment: Antiproliferative activity against human A549 cells assessed as reduction in cell viability after 24 hrs by MTT assay; details: A549, 24 h
[9] = test system: MDA-MB-231; experiment: Antiproliferative activity against human MDA-MB-231 cells assessed as reduction in cell viability after 24 hrs by MTT assay; details: MDA-MB-231, 24 h
[10] = test system: PC-3; experiment: Antiproliferative activity against human PC3 cells assessed as reduction in cell viability after 24 hrs by MTT assay; details: PC-3, 24 h
[11] = test system: HeLa; experiment: Antiproliferative activity against human HeLa cells by MTT assay

Q: How did the IC50 [1] turn out when `C[C@H]1[C@@H](OCc2cn(-c3cccc(C(=O)N4CCCCC4)c3)nn2)O[C@@H]2O[C@@]3(C)CC[C@H]4[C@H](C)CC[C@@H]1[C@@]24OO3` was run?
A: 2.5 to 176 µM

Q: What about the IC50 [2] of the same molecule?
A: 2.5 to 176 µM

Q: What about the IC50 [3] of the same molecule?
A: 2.5 to 176 µM

Q: And the IC50 [4]?
A: 2.5 to 176 µM

Q: Which IC50 [1] does the source give for `CC1CCCCN1C(=O)c1cccc(-n2cc(CO[C@H]3O[C@@H]4O[C@@]5(C)CC[C@H]6[C@H](C)CC[C@@H]([C@H]3C)[C@@]46OO5)nn2)c1` (stereo partly specified) here?
A: 2.5 to 176 µM

Q: And the IC50 [2]?
A: 2.5 to 176 µM

Q: What about the IC50 [3] of the same molecule?
A: 2.5 to 176 µM

Q: What about the IC50 [4] of the same molecule?
A: 2.5 to 176 µM

Q: What does the source list for `C[C@H]1[C@@H](OCc2cn(-c3cccc(C(=O)N4CCOCC4)c3)nn2)O[C@@H]2O[C@@]3(C)CC[C@H]4[C@H](C)CC[C@@H]1[C@@]24OO3`?
A: IC50 [1]: 2.5 to 176 µM; IC50 [2]: 2.5 to 176 µM; IC50 [3]: 2.5 to 176 µM; IC50 [4]: 2.5 to 176 µM

Q: `C[C@H]1[C@@H](OCc2cn(-c3cccc(C(=O)N4CCN(c5ccccc5)CC4)c3)nn2)O[C@@H]2O[C@@]3(C)CC[C@H]4[C@H](C)CC[C@@H]1[C@@]24OO3` was tested. Which IC50 [1] did it give?
A: 2.5 to 176 µM

Q: And the IC50 [2]?
A: 2.5 to 176 µM

Q: And the IC50 [3]?
A: 2.5 to 176 µM

Q: What about the IC50 [4] of the same molecule?
A: 2.5 to 176 µM

Q: Which IC50 [5] does the source give for `CC(=O)c1ccccc1-n1cc(CO[C@H]2O[C@@H]3O[C@@]4(C)CC[C@H]5[C@H](C)CC[C@@H]([C@H]2C)[C@@]35OO4)nn1` here?
A: 4.06 to 89.9 µM

Q: And the IC50 [6]?
A: 4.06 to 89.9 µM

Q: And the IC50 [7]?
A: 4.06 to 89.9 µM

Q: And the IC50 [8]?
A: 4.06 to 89.9 µM

Q: What about the IC50 [9] of the same molecule?
A: 4.06 to 89.9 µM

Q: What about the IC50 [10] of the same molecule?
A: 4.06 to 89.9 µM

Q: How did the IC50 [5] turn out when `C[C@H]1[C@@H](OCc2cn(-c3ccc(C#N)cc3)nn2)O[C@@H]2O[C@@]3(C)CC[C@H]4[C@H](C)CC[C@@H]1[C@@]24OO3` was run?
A: 4.06 to 89.9 µM

Q: And the IC50 [6]?
A: 4.06 to 89.9 µM

Q: And the IC50 [7]?
A: 4.06 to 89.9 µM

Q: And the IC50 [8]?
A: 4.06 to 89.9 µM

Q: What about the IC50 [9] of the same molecule?
A: 4.06 to 89.9 µM

Q: What about the IC50 [10] of the same molecule?
A: 4.06 to 89.9 µM

Q: For `CC(=O)c1ccc(-n2cc(CO[C@H]3O[C@@H]4O[C@@]5(C)CC[C@H]6[C@H](C)CC[C@@H]([C@H]3C)[C@@]46OO5)nn2)cc1`, which IC50 [5] is on record?
A: 4.06 to 89.9 µM

Q: What about the IC50 [6] of the same molecule?
A: 4.06 to 89.9 µM

Q: And the IC50 [7]?
A: 4.06 to 89.9 µM

Q: What about the IC50 [8] of the same molecule?
A: 4.06 to 89.9 µM

Q: And the IC50 [9]?
A: 4.06 to 89.9 µM

Q: What about the IC50 [10] of the same molecule?
A: 4.06 to 89.9 µM

Q: How did the IC50 [5] turn out when `C[C@H]1[C@@H](OCc2cn(-c3ccc([N+](=O)[O-])cc3)nn2)O[C@@H]2O[C@@]3(C)O[C@]24[C@H]1CC[C@@H](C)[C@@H]4C[C@H]3O` was run?
A: 4.06 to 89.9 µM

Q: And the IC50 [6]?
A: 4.06 to 89.9 µM

Q: And the IC50 [7]?
A: 4.06 to 89.9 µM

Q: What about the IC50 [8] of the same molecule?
A: 4.06 to 89.9 µM

Q: And the IC50 [9]?
A: 4.06 to 89.9 µM

Q: What about the IC50 [10] of the same molecule?
A: 4.06 to 89.9 µM

Q: What does the source list for `CC1CCN(C(=O)c2ccc(-n3cc(CO[C@H]4O[C@@H]5O[C@@]6(C)CC[C@H]7[C@H](C)CC[C@@H]([C@H]4C)[C@@]57OO6)nn3)cc2)CC1`?
A: IC50 [1]: 2.5 to 4.7 µM; IC50 [2]: 2.5 to 4.7 µM; IC50 [3]: 2.5 to 4.7 µM; IC50 [4]: 2.5 to 4.7 µM

Q: `CCN(CC)C(=O)c1ccc(-n2cc(CO[C@H]3O[C@@H]4O[C@@]5(C)CC[C@H]6[C@H](C)CC[C@@H]([C@H]3C)[C@@]46OO5)nn2)cc1` was tested. Which IC50 [1] did it give?
A: 2.5 to 176 µM

Q: And the IC50 [2]?
A: 2.5 to 176 µM

Q: And the IC50 [3]?
A: 2.5 to 176 µM

Q: And the IC50 [4]?
A: 2.5 to 176 µM

Q: With `CC1CCN(C(=O)c2cccc(-n3cc(CO[C@H]4O[C@@H]5O[C@@]6(C)CC[C@H]7[C@H](C)CC[C@@H]([C@H]4C)[C@@]57OO6)nn3)c2)CC1` as the molecule, how does the IC50 [1] read?
A: 2.5 to 176 µM

Q: What about the IC50 [2] of the same molecule?
A: 2.5 to 176 µM

Q: What about the IC50 [3] of the same molecule?
A: 2.5 to 176 µM

Q: What about the IC50 [4] of the same molecule?
A: 2.5 to 176 µM

Q: `CCN1CCN(C(=O)c2ccc(-n3cc(CO[C@H]4O[C@@H]5O[C@@]6(C)CC[C@H]7[C@H](C)CC[C@@H]([C@H]4C)[C@@]57OO6)nn3)cc2)CC1` was tested. Which IC50 [1] did it give?
A: 2.5 to 176 µM

Q: And the IC50 [2]?
A: 2.5 to 176 µM

Q: And the IC50 [3]?
A: 2.5 to 176 µM

Q: And the IC50 [4]?
A: 2.5 to 176 µM

Q: `C[C@H]1[C@@H](OCc2cn(-c3ccc(C(=O)N4CCCC4)cc3)nn2)O[C@@H]2O[C@@]3(C)CC[C@H]4[C@H](C)CC[C@@H]1[C@@]24OO3` was tested. Which IC50 [1] did it give?
A: 2.5 to 176 µM

Q: And the IC50 [2]?
A: 2.5 to 176 µM

Q: And the IC50 [3]?
A: 2.5 to 176 µM

Q: And the IC50 [4]?
A: 2.5 to 176 µM

Q: With `CC(=O)c1cccc(-n2cc(CO[C@H]3O[C@@H]4O[C@@]5(C)CC[C@H]6[C@H](C)CC[C@@H]([C@H]3C)[C@@]46OO5)nn2)c1` as the molecule, how does the IC50 [5] read?
A: 4.06 to 89.9 µM

Q: What about the IC50 [6] of the same molecule?
A: 4.06 to 89.9 µM

Q: And the IC50 [7]?
A: 4.06 to 89.9 µM

Q: What about the IC50 [8] of the same molecule?
A: 4.06 to 89.9 µM

Q: And the IC50 [9]?
A: 4.06 to 89.9 µM

Q: What about the IC50 [10] of the same molecule?
A: 4.06 to 89.9 µM

Q: Which IC50 [1] does the source give for `C[C@H]1[C@@H](OCc2cn(-c3cccc(C(=O)N4CCN(C)CC4)c3)nn2)O[C@@H]2O[C@@]3(C)CC[C@H]4[C@H](C)CC[C@@H]1[C@@]24OO3` here?
A: 2.5 to 176 µM

Q: What about the IC50 [2] of the same molecule?
A: 2.5 to 176 µM

Q: What about the IC50 [3] of the same molecule?
A: 2.5 to 176 µM

Q: What about the IC50 [4] of the same molecule?
A: 2.5 to 176 µM

Q: `C[C@H]1[C@@H](OCc2cn(-c3ccc(C(=O)N4CCOCC4)cc3)nn2)O[C@@H]2O[C@@]3(C)CC[C@H]4[C@H](C)CC[C@@H]1[C@@]24OO3` was tested. Which IC50 [1] did it give?
A: 2.5 to 176 µM

Q: And the IC50 [2]?
A: 2.5 to 176 µM

Q: What about the IC50 [3] of the same molecule?
A: 2.5 to 176 µM

Q: And the IC50 [4]?
A: 2.5 to 176 µM

Q: What does the source list for `COc1ccc(-n2cc(Cn3c(=O)sc4cc(Br)ccc43)nn2)cc1`?
A: IC50 [2]: 17.5 µM; IC50 [11]: 12.2 µM
